What all share (test): NCI tumour cell line growth inhibition, 48 h
Experiment [1] has as its system CCRF-CEM leukemia.
For experiment [2], the system named is HOP-92 NSCLC.
The subject of experiment [3] is MALME-3M melanoma.
For experiment [4], the system named is NCI-H23 lung.
Experiment [5] deals with OVCAR-4 ovarian.
For experiment [6], the system named is SN12C renal.
The subject of experiment [7] is SR leukemia.
Experiment [8] concerns TK-10 renal.
Experiment [9] has as its system UACC-257 melanoma.
For experiment [10], the system named is UACC-62 melanoma.

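Each compound was tested at five concentrations against cells in 96-well plates for 48 hours. Abbreviation: GI50, concentration required for 50% inhibition of growth. The concentration for full growth arrest is given as TGI.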

On to `COc1ccc(C2CC(=O)Nc3c2c(C)nn3-c2nc3ccccc3[nH]2)cc1OC` (stereo not given), for which the GI50 in experiment [1] is 1.62 µM; in [2], 6.01 µM; in experiment [3], 4.94 µM; in [4], 3.66 µM; in [5] it was 6.42 µM; in [6], 5.96 µM. In addition, the GI50 was 3.36 µM in [7], 8.95 µM in experiment [8], 6.46 µM in experiment [9] and 3.15 µM in [10]. The TGI in [1] is above 96.3 µM; in [2], 35.1 µM; in experiment [3] it was 29 µM; in experiment [4], 22.1 µM; in experiment [5], above 100 µM; in experiment [6], 35.5 µM. In addition, the TGI in [7] turned out to be 26.2 µM; in experiment [8] it was 93.5 µM; in experiment [9] it was 55.4 µM; in [10], 12.8 µM.

Regarding `Nc1[nH]c(=S)[nH]c(=O)c1N=Nc1c(Br)cc(S(N)(=O)=O)cc1Br`, the TGI in [1], in experiment [2], in [3], in experiment [4], in [5] and in experiment [6] was above 100 µM each time. Besides, the TGI in experiment [7], in experiment [8], in experiment [9] and in experiment [10] was above 100 µM each time.

For the compound `CCOC1=C2N=C(C(CC)c3ccc(F)cc3)N=C2C(=O)c2ccccc21` (stereo not given), the TGI in [1] was above 100 µM; in experiment [2], 66.3 µM; in experiment [3], 61.8 µM; in experiment [4] it was 70.2 µM; in experiment [5] it was above 94.4 µM; in [6], above 66.7 µM. The TGI in experiment [7] was determined as 89.2 µM; in experiment [8], 66.7 µM; in experiment [9] it was 49 µM; in experiment [10], 29.7 µM.

As to `CCC(/C(=N/NC(=O)C[N+](C)(C)C)c1ccccc1)C1OC(=O)c2ccccc21` (stereo not given), the TGI in experiment [1], in [2], in [3], in [4], in [5] and in experiment [6] was above 100 µM throughout. The TGI in experiment [7], in experiment [8], in experiment [9] and in experiment [10] was above 100 µM in each case.

Consider `CC(C)(C)c1cc([Si](C)(C)C)c(C#N)c([Si](C)(C)C)c1`, for which the TGI in [1], in [2], in experiment [3], in experiment [4], in [5] and in [6] was above 100 µM each time. Also, the TGI in [7] is 85.5 µM; in experiment [8], above 100 µM; in experiment [9], above 100 µM; in experiment [10], above 100 µM.

As for `C=C1[C@H](O)C[C@@H](C(C)C(O)CC=C(C)C)[C@@H](O)[C@@H]2C(C)=CC[C@@H]12` (stereo not given in full), the GI50 in experiment [1] is 55.6 µM; in [2], above 100 µM; in experiment [3], above 100 µM; in [4], above 100 µM; in [5], above 100 µM; in experiment [6] it was above 100 µM. The GI50 is above 100 µM in experiment [7], above 100 µM in experiment [8], above 100 µM in experiment [9] and 94.8 µM in experiment [10]. The TGI in experiment [1], in experiment [2], in experiment [3], in experiment [4], in experiment [5] and in experiment [6] was above 100 µM each time. Moreover, the TGI in experiment [7], in experiment [8], in experiment [9] and in experiment [10] was above 100 µM in each case.

Consider `CN1c2cccc[c]2[Sn]([CH3])([CH3])[c]2ccccc21`, for which the GI50 in experiment [1] was below 0.01 µM; in experiment [2], 0.01 µM; in [3] it was below 0.0238 µM; in experiment [4], below 0.01 µM; in experiment [5], below 0.0121 µM; in experiment [6] it was below 0.0138 µM. Further, the GI50 in experiment [7] is below 0.01 µM; in experiment [8] it was below 0.0192 µM; in experiment [9] it was below 0.01 µM; in experiment [10], below 0.0147 µM. The TGI is 0.119 µM in experiment [1]; 0.104 µM in experiment [2]; 0.226 µM in experiment [3]; 0.0677 µM in experiment [4]; 0.232 µM in experiment [5]; 0.116 µM in [6]. Also, the TGI in experiment [7] was 0.0387 µM; in [8], 0.135 µM; in [9] it was below 0.0217 µM; in experiment [10] it was 0.113 µM.

`Clc1cc2ns[s+]c2cc1Cl`: the TGI in experiment [1], in experiment [2], in [3], in experiment [4], in [5] and in experiment [6] was above 100 µM each time. Also, the TGI is above 100 µM in experiment [7], 98.9 µM in experiment [8], above 100 µM in experiment [9] and above 100 µM in experiment [10].

On to `O=S1(=O)CC#CC[C@@H](CO)[C@@H](CO)CC#CC1`, for which the TGI in [1] is 98.1 µM; in experiment [2], 90.3 µM; in [3], 68.2 µM; in experiment [4], above 100 µM; in [5], above 100 µM; in experiment [6] it was above 100 µM. The TGI in experiment [7], in experiment [8], in experiment [9] and in [10] was above 100 µM each time.

With `CCN1C(=O)N(CC)C2C1NN=c1s/c(=C\c3ccc(Br)cc3)c(=O)n12` (stereo not given), the GI50 in experiment [1] is 0.246 µM; in experiment [2] it was 0.0365 µM; in experiment [3], 2.39 µM; in experiment [4] it was 0.422 µM; in [5], 0.388 µM; in [6] it was 0.512 µM. Besides, the GI50 in [7] was 0.04 µM; in experiment [8], 0.741 µM; in experiment [9] it was 0.849 µM; in experiment [10] it was 0.0557 µM. For the same compound, the TGI in experiment [1] was above 33.1 µM; in experiment [2], above 63.7 µM; in experiment [3] it was above 100 µM; in experiment [4] it was above 100 µM; in experiment [5], above 100 µM; in experiment [6], above 100 µM. The TGI in [7], in experiment [8], in experiment [9] and in [10] was above 100 µM throughout.

`Oc1ccc(Cl)cc1N=Nc1c(O)ccc2ccccc12`: the TGI in experiment [1] is above 100 µM; in [2], above 100 µM; in experiment [3], 80.3 µM; in experiment [4], above 100 µM; in [5], above 100 µM; in experiment [6], above 100 µM. The TGI in experiment [7], in experiment [8], in experiment [9] and in experiment [10] was above 100 µM throughout.

For the origin of these results see PubChem BioAssay (NCI).
